ChEMBL document CHEMBL5724914, “Linking interpersonal differences in gut microbiota composition and drug biotransformation activity” (2024)

Assays:
[1] = human gut metagenome, 24 h, 2 µM
[2] = (§1) The drug is tested on Z-019 corresponding to rat gut metagenome with ENA study accession number: PRJEB37062 and ENA sample accession number: ERS12561818 for biotransformation under anaerobic condition. The drug concentrations were measured over 9 timepoints collected between 0 and 24 hours of incubation by liquid-chromatography-coupled mass spectrometry (LC–MS); details: 2 µM
[3] = as §1, with “on WLS-073” for “on Z-019”, “to human” for “to rat”, “number: ERS12561749” for “number: ERS12561818”; details: 2 µM
[4] = as §1, with “on WLS-069” for “on Z-019”, “to human” for “to rat”, “number: ERS12561748” for “number: ERS12561818”; details: 2 µM
[5] = human gut metagenome, 24 h, 2 µM; remark: listed apart in the source
[6] = human gut metagenome, 24 h, 2 µM; remark: listed apart in the source
[7] = as §1, with “on Z-024” for “on Z-019”, “to pig” for “to rat”, “number: ERS12561823” for “number: ERS12561818”; details: 2 µM
[8] = as §1, with “on WLS-052” for “on Z-019”, “to human” for “to rat”, “number: ERS12561747” for “number: ERS12561818”; details: 2 µM
[9] = as §1, with “Z-007” for “Z-019”, “ERS12561807” for “ERS12561818”; details: 2 µM
[10] = human gut metagenome, 24 h, 2 µM; remark: listed apart in the source
[11] = human gut metagenome, 24 h, 2 µM; remark: listed apart in the source
[12] = as §1, with “on WLS-170” for “on Z-019”, “to human” for “to rat”, “number: ERS12561762” for “number: ERS12561818”; details: 2 µM
[13] = as §1, with “on Z-017” for “on Z-019”, “to mouse” for “to rat”, “number: ERS12561816” for “number: ERS12561818”; details: 2 µM
[14] = as §1, with “on Z-016” for “on Z-019”, “to mouse” for “to rat”, “number: ERS12561815” for “number: ERS12561818”; details: 2 µM
[15] = human gut metagenome, 24 h, 2 µM; remark: listed apart in the source
[16] = human gut metagenome, 24 h, 2 µM; remark: listed apart in the source
[17] = human gut metagenome, 24 h, 2 µM; remark: listed apart in the source
[18] = human gut metagenome, 24 h, 2 µM; remark: listed apart in the source
[19] = human gut metagenome, 24 h, 2 µM; remark: listed apart in the source
[20] = human gut metagenome, 24 h, 2 µM; remark: listed apart in the source
Further: call rule not given here.

Compound	Bacterial Biotransformation [1]	Bacterial Biotransformation [2]	Bacterial Biotransformation [3]	Bacterial Biotransformation [4]	Bacterial Biotransformation [5]	Bacterial Biotransformation [6]	Bacterial Biotransformation [7]	Bacterial Biotransformation [8]	Bacterial Biotransformation [9]	Bacterial Biotransformation [10]	Bacterial Biotransformation [11]	Bacterial Biotransformation [12]	Bacterial Biotransformation [13]	Bacterial Biotransformation [14]	Bacterial Biotransformation [15]	Bacterial Biotransformation [16]	Bacterial Biotransformation [17]	Bacterial Biotransformation [18]	Bacterial Biotransformation [19]	Bacterial Biotransformation [20]
CCN(CC)C(=O)C1(c2ccccc2)CC1CN (stereo not given)	Compound NOT metabolized	Compound NOT metabolized	Compound NOT metabolized	Compound NOT metabolized	Compound NOT metabolized	Compound NOT metabolized	Compound NOT metabolized	Compound NOT metabolized	Compound NOT metabolized	Compound NOT metabolized	Compound NOT metabolized	Compound metabolized	Compound NOT metabolized	Compound NOT metabolized	Compound NOT metabolized	Compound NOT metabolized	Compound NOT metabolized	Compound NOT metabolized	Compound NOT metabolized	Compound NOT metabolized
Nc1nc(NC2CC2)c2ncn([C@H]3C=C[C@@H](CO)C3)c2n1.Nc1nc(NC2CC2)c2ncn([C@H]3C=C[C@@H](CO)C3)c2n1.O=S(=O)(O)O [ABACAVIR SULFATE]	Compound NOT metabolized	Compound NOT metabolized	Compound metabolized	Compound metabolized	Compound metabolized	Compound metabolized	Compound NOT metabolized	Compound NOT metabolized	Compound NOT metabolized	Compound NOT metabolized	Compound metabolized	Compound metabolized	Compound NOT metabolized	Compound NOT metabolized	Compound NOT metabolized	Compound NOT metabolized	Compound NOT metabolized	Compound metabolized	Compound metabolized	Compound NOT metabolized
CCN(CC)CCNC(=O)c1ccc(NC(C)=O)cc1 [ACECAINIDE]	Compound NOT metabolized	Compound NOT metabolized	Compound NOT metabolized	Compound NOT metabolized	Compound NOT metabolized	Compound NOT metabolized	Compound NOT metabolized	Compound NOT metabolized	Compound NOT metabolized	Compound NOT metabolized	Compound NOT metabolized	Compound metabolized	Compound NOT metabolized	Compound NOT metabolized	Compound NOT metabolized	Compound NOT metabolized	Compound NOT metabolized	Compound metabolized	Compound NOT metabolized	Compound NOT metabolized
O=C1CN2Cc3c(ccc(Cl)c3Cl)N=C2N1 [ANAGRELIDE]	Compound NOT metabolized	Compound NOT metabolized	Compound NOT metabolized	Compound metabolized	Compound NOT metabolized	Compound NOT metabolized	Compound metabolized	Compound metabolized	Compound NOT metabolized	Compound NOT metabolized	Compound NOT metabolized	Compound metabolized	Compound NOT metabolized	Compound NOT metabolized	Compound NOT metabolized	Compound metabolized	Compound NOT metabolized	Compound NOT metabolized	Compound NOT metabolized	Compound NOT metabolized
CN(C)C(=O)Oc1cc(OC(=O)N(C)C)cc(C(O)CNC(C)(C)C)c1 (stereo not given) [BAMBUTEROL]	Compound metabolized	Compound NOT metabolized	Compound NOT metabolized	Compound NOT metabolized	Compound NOT metabolized	Compound NOT metabolized	Compound NOT metabolized	Compound NOT metabolized	Compound NOT metabolized	Compound NOT metabolized	Compound NOT metabolized	Compound NOT metabolized	Compound NOT metabolized	Compound NOT metabolized	Compound metabolized	Compound NOT metabolized	Compound NOT metabolized	Compound metabolized	Compound NOT metabolized	Compound metabolized
CC(NC(C)(C)C)C(=O)c1cccc(Cl)c1 (stereo not given) [BUPROPION]	Compound NOT metabolized	Compound NOT metabolized	Compound NOT metabolized	Compound NOT metabolized	Compound metabolized	Compound NOT metabolized	Compound NOT metabolized	Compound NOT metabolized	Compound NOT metabolized	Compound NOT metabolized	Compound NOT metabolized	Compound NOT metabolized	Compound NOT metabolized	Compound NOT metabolized	Compound NOT metabolized	Compound metabolized	Compound NOT metabolized	Compound NOT metabolized	Compound NOT metabolized	Compound NOT metabolized
O=C1CC2(CCCC2)CC(=O)N1CCCCN1CCN(c2ncccn2)CC1 [BUSPIRONE]	Compound NOT metabolized	Compound NOT metabolized	Compound NOT metabolized	Compound metabolized	Compound metabolized	Compound NOT metabolized	Compound NOT metabolized	Compound NOT metabolized	Compound NOT metabolized	Compound NOT metabolized	Compound metabolized	Compound metabolized	Compound NOT metabolized	Compound NOT metabolized	Compound NOT metabolized	Compound metabolized	Compound NOT metabolized	Compound metabolized	Compound metabolized	Compound NOT metabolized
CCCC(C)(COC(N)=O)COC(=O)NC(C)C (stereo not given) [CARISOPRODOL]	Compound metabolized	Compound NOT metabolized	Compound metabolized	Compound metabolized	Compound metabolized	Compound metabolized	Compound metabolized	Compound metabolized	Compound NOT metabolized	Compound metabolized	Compound metabolized	Compound metabolized	Compound NOT metabolized	Compound metabolized	Compound metabolized	Compound metabolized	Compound NOT metabolized	Compound NOT metabolized	Compound metabolized	Compound metabolized
